Laboratory results reported in patent US20170107207A1, “AMINOPYRAZOLONE DERIVATIVE” (DAIICHI SANKYO COMPANY, LIMITED, priority 2014, published 2017).

Legend:
Format in all cases: cell-based
[1] = tested on: NCI-H460; assay: Cell growth inhibition test, NCI-H460; settings: Homo sapiens, 72 h; NCI-H460, Lung cancer, 3 days, CellTiter-Glo
Protocol: (§1) A cell growth inhibition test was carried out by treating a cultured cancer cell line with a test compound for a given period and then counting the number of viable cells by CellTiter-Glo Luminescent Cell Viability Assay (manufactured by Promega Corp.).
(§2) The following cells were inoculated to a 384-well plate containing the compound prepared in advance at predetermined concentrations. […]
(§3) The cells thus inoculated were cultured at 37° C. for 3 days under 5% CO2. […] Then, luminescence intensity was measured using a plate reader.
(§4) The number of viable cells and luminescence intensity have been confirmed to correlate with each other. Therefore, the rate of cell growth was calculated according to the following expression: Rate of cell growth (T/C %) of a test compound-supplemented well=100×[(B−C)/(A−C)] wherein A represents the luminescence intensity (final culture date) of a test compound-free well; B represents the luminescence intensity (final culture date) of a test compound-containing well; and C represents the luminescence intensity (day of cell inoculation) of a well at the start of contact of the cells with the test compound.
(§5) T/C % at the concentration of each of the serially diluted test compounds was determined. […]

[2] = tested on: 786-0; assay: Cell growth inhibition test, 786-0; settings: Homo sapiens, 72 h; 786-0, Kidney cancer, 3 days, CellTiter-Glo
Protocol: as §1, §2, §3, §4, §5

[3] = tested on: HCC1954; assay: Cell growth inhibition test, HCC1954; settings: Homo sapiens, 72 h; HCC1954, Breast cancer, 3 days, CellTiter-Glo
Protocol: as §1, §2, §3, §4, §5

[4] = tested on: RL952; assay: Cell growth inhibition test, RL952; settings: Homo sapiens, RL95-2, 72 h; RL952, Endometrial cancer, 3 days, CellTiter-Glo
Protocol: as §1, §2, §3, §4, §5

[5] = tested on: CAL-51; assay: Cell growth inhibition test, CAL-51; settings: Homo sapiens, 72 h; CAL-51, Breast cancer, 3 days, CellTiter-Glo
Protocol: as §1, §2, §3, §4, §5

[6] = tested on: KASUMI-1; assay: Cell growth inhibition test, KASUMI-1; settings: Homo sapiens, 72 h; KASUMI-1, Leukemia, 3 days, CellTiter-Glo
Protocol: as §1, §2, §3, §4, §5

[7] = tested on: A-431; assay: Cell growth inhibition test, A-431; settings: Homo sapiens, 72 h; A-431, Skin cancer, 3 days, CellTiter-Glo
Protocol: as §1, §2, §3, §4, §5

[8] = tested on: NCI-H146; assay: Cell growth inhibition test, NCI-H146; settings: Homo sapiens, 72 h; NCI-H146, Lung cancer, 3 days, CellTiter-Glo
Protocol: as §1, §2, §3, §4, §5

[9] = tested on: RKO; assay: Cell growth inhibition test, RKO; settings: Homo sapiens, 72 h, Large intestine cancer, 3 days, CellTiter-Glo
Protocol: as §1, §2, §3, §4, §5

[10] = tested on: A-498; assay: Cell growth inhibition test, A-498; settings: Homo sapiens, A498, 72 h; A-498, Kidney cancer, 3 days, CellTiter-Glo
Protocol: as §1, §2, §3, §4, §5

[11] = tested on: MCF7; assay: Cell growth inhibition test, MCF7; settings: Homo sapiens, 72 h; MCF7, Breast cancer, 3 days, CellTiter-Glo
Protocol: as §1, §2, §3, §4, §5

[12] = tested on: NCI-N87; assay: Cell growth inhibition test, NCI-N87; settings: Homo sapiens, 72 h; NCI-N87, Stomach cancer, 3 days, CellTiter-Glo
Protocol: as §1, §2, §3, §4, §5

[13] = tested on: HCT 116; assay: Cell growth inhibition test, HCT 116; settings: Homo sapiens, 72 h; HCT 116, Large intestine cancer, 3 days, CellTiter-Glo
Protocol: as §1, §2, §3, §4, §5

Row | GI50 [1] | GI50 [2] | GI50 [3] | GI50 [7] | GI50 [8] | GI50 [11] | GI50 [13] | Structure (SMILES) | GI50 [4] | GI50 [5] | GI50 [6] | GI50 [9] | GI50 [10] | GI50 [12]
1 | 310 nM | 680 nM | 340 nM | 210 nM | 1100 nM | 530 nM | 180 nM | CCOc1ccc(Cl)cc1C(=O)NCC(C)(C)CC(=O)Nc1c([C@H](C)CN(C)C)n(C)n(-c2ccccc2)c1=O [Example 68, 5-Chloro-N-[4-({5-[(1R)-2-(dimethylamino)-1-methylethyl]-1-methyl-3-oxo-2-phenyl-2,3-dihydro-1H-pyrazol-4-yl}amino)-2,2-dimethyl-4-oxobutyl]-2-ethoxybenzamide] | 530 nM | 800 nM | 140 nM | 240 nM | 540 nM | 270 nM
2 | 730 nM | 920 nM | 920 nM | 540 nM | 2700 nM | 980 nM | 460 nM | CCOc1ncc(Cl)cc1C(=O)NCC(C)(C)CC(=O)Nc1c([C@H](C)CN(C)C)n(C)n(-c2ccccc2)c1=O [Example 73, 5-Chloro-N-[4-({5-[(1R)-2-(dimethylamino)-1-methylethyl]-1-methyl-3-oxo-2-phenyl-2,3-dihydro-1H-pyrazol-4-yl}amino)-2,2-dimethyl-4-oxobutyl]-2-ethoxypyridine-3-carboxamide] | 890 nM | 1300 nM | 240 nM | 570 nM | 940 nM | 660 nM
3 | 550 nM | 320 nM | 720 nM | 390 nM | 2000 nM | 750 nM | 230 nM | CCOc1cc(F)c(Cl)cc1C(=O)NCC(C)(C)CC(=O)Nc1c(COC)n(C)n(-c2ccccc2)c1=O [Example 113, 5-Chloro-2-ethoxy-4-fluoro-N-(4-{[5-(methoxymethyl)-1-methyl-3-oxo-2-phenyl-2,3-dihydro-1H-pyrazol-4-yl]amino}-2,2-dimethyl-4-oxobutyl)benzamide] | 870 nM | 620 nM | 230 nM | 310 nM | 430 nM | 530 nM
